How the values were obtained:
Experiment in all cases: relative viability (nuclei count vs DMSO), 5 days (fraction); higher = more cells survive
[1] = compound: O=C(/C=C/c1cccnc1)NCCCCC1CCN(C(=O)c2ccccc2)CC1 [Daporinad] + Nc1ncn([C@H]2C[C@H](O)[C@@H](CO)O2)c(=O)n1 [Decitabine] (partner 2 µM)
In short: (§1)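 Nuclei were stained with Hoechst during a one-step fixation (final 0.05% Triton X-100, 1% formaldehyde, 1 ug/ml Hoechst) carried out 5 days after dosing, then counted on 4× images. The cells, lung cancer lines in 1536-well plates, had been dosed by pin tool the day after seeding with one drug alone or a fixed anchor-drug dose plus five library-drug doses (not always all listed) in √10 steps. Relative viability is the nuclei count in treated wells divided by that in vehicle wells, and each value is the median of duplicate plates.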

[2] = compound: COc1cc(Nc2ncc(F)c(Nc3ccc4c(n3)NC(=O)C(C)(C)O4)n2)cc(OC)c1OC [R406] + CCNC(=O)c1noc(-c2cc(C(C)C)c(O)cc2O)c1-c1ccc(CN2CCOCC2)cc1 [Luminespib] (partner 0.01 µM)
In short: as §1

[3] = compound: O=C(/C=C/c1cccnc1)NCCCCC1CCN(C(=O)c2ccccc2)CC1 [Daporinad] + C[C@]1(O)C[C@@H](c2nc(-c3ccc4ccc(-c5ccccc5)nc4c3)c3c(N)nccn32)C1 [Linsitinib] (partner 1 µM)
In short: as §1

[4] = compound: O=C(/C=C/c1cccnc1)NCCCCC1CCN(C(=O)c2ccccc2)CC1 [Daporinad] + CC(=O)Nc1cccc(-n2c(=O)n(C3CC3)c(=O)c3c(Nc4ccc(I)cc4F)n(C)c(=O)c(C)c32)c1 [Trametinib] (partner 0.02 µM)
In short: as §1

Cell Line | relative viability ([1]; first compound 0.0005 µM) | relative viability ([1]; first compound 0.001581 µM) | relative viability ([1]; first compound 0.005 µM) | relative viability ([1]; first compound 0.01581 µM) | relative viability ([2]; first compound 0.08 µM) | relative viability ([2]; first compound 0.253 µM) | relative viability ([2]; first compound 0.8 µM) | relative viability ([2]; first compound 2.53 µM) | relative viability ([2]; first compound 8 µM) | relative viability ([3]; first compound 0.0005 µM) | relative viability ([3]; first compound 0.001581 µM) | relative viability ([3]; first compound 0.005 µM) | relative viability ([3]; first compound 0.01581 µM) | relative viability ([4]; first compound 0.0005 µM) | relative viability ([4]; first compound 0.001581 µM) | relative viability ([4]; first compound 0.005 µM) | relative viability ([4]; first compound 0.01581 µM)
NCI-H1395 | 0.713 | 0.816 | 0.765 | 0.784 | 0.502 | 0.725 | 0.71 | 0.466 | 0.355 | 1.01 | 1.23 | 0.999 | 1.44 | 1.04 | 1.04 | 1.14 | 1.06
NCI-H1437 | 0.554 | 0.565 | 0.614 | 0.575 | 1.14 | 1.13 | 1.15 | 1.23 | 0.966 | 0.969 | 0.986 | 0.976 | 0.965 | 0.444 | 0.544 | 0.551 | 0.518
NCI-H1651 | 0.711 | 0.67 | 0.731 | 0.47 | 1.07 | 1.2 | 1.02 | 0.647 | 0.793 | 0.928 | 0.935 | 0.839 | 0.838 | 0.854 | 0.825 | 0.823 | 0.757
NCI-H1666 | 0.666 | 0.712 | 0.814 | 0.718 | 1.02 | 1.16 | 1.03 | 1.05 | 0.64 | 0.834 | 0.764 | 0.747 | 0.839 | 0.692 | 0.843 | 0.821 | 0.9
NCI-H1734 | 0.488 | 0.494 | 0.394 | 0.32 | 0.196 | 0.193 | 0.207 | 0.189 | 0.16 | 0.841 | 0.962 | 0.894 | 0.732 | 0.725 | 0.764 | 0.724 | 0.491
NCI-H1755 | 0.747 | 0.716 | 0.713 | 0.652 | 0.351 | 0.459 | 0.255 | 0.211 | 0.334 | 1.02 | 0.998 | 0.977 | 0.988 | 0.751 | 0.761 | 0.779 | 0.768
NCI-H1792 | 0.545 | 0.65 | 0.683 | 0.406 | 0.423 | 0.424 | 0.402 | 0.278 | 0.176 | 0.392 | 0.486 | 0.359 | 0.686 | 0.412 | 0.471 | 0.421 | 0.453
NCI-H1793 | 0.45 | 0.496 | 0.489 | 0.564 | 0.145 | 0.148 | 0.18 | 0.128 | 0.136 | 0.697 | 0.853 | 1.14 | 0.926 | 0.362 | 0.453 | 0.525 | 0.389
NCI-H1915 | 0.25 | 0.283 | 0.271 | 0.257 | 0.819 | 0.886 | 0.982 | – | 0.624 | 1.13 | 1.17 | 1.09 | 1.11 | 0.28 | 0.309 | 0.284 | 0.368
